PubChem BioAssay (NCI)
Where “and” joins values, the source holds several entries; their conditions need not be identical. Equal entries are not always repeated.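 Interpolation was linear, between the two tested concentrations surrounding the appropriate level; five concentrations were tested over 48 hours in 96-well plates. GI50 is the concentration that inhibits growth by half. TGI is the concentration that stops growth completely.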

Columns and labels:
Assay in all cases: NCI anticancer screen, dose series, 48 h
MOLT-4 leukemia = tested on: MOLT-4 leukemia
OVCAR-4 ovarian = tested on: OVCAR-4 ovarian
TK-10 renal = tested on: TK-10 renal
ACHN renal = tested on: ACHN renal
UO-31 renal = tested on: UO-31 renal
A498 renal = tested on: A498 renal
HL-60(TB) leukemia = tested on: HL-60(TB) leukemia
SNB-19 CNS = tested on: SNB-19 CNS
U251 CNS = tested on: U251 CNS
SK-MEL-5 melanoma = tested on: SK-MEL-5 melanoma

Compound	GI50 (MOLT-4 leukemia)	TGI (MOLT-4 leukemia)	GI50 (OVCAR-4 ovarian)	TGI (OVCAR-4 ovarian)	GI50 (TK-10 renal)	TGI (TK-10 renal)	TGI (ACHN renal)	GI50 (UO-31 renal)	TGI (UO-31 renal)	GI50 (A498 renal)	TGI (A498 renal)	GI50 (HL-60(TB) leukemia)	TGI (HL-60(TB) leukemia)	GI50 (SNB-19 CNS)	TGI (SNB-19 CNS)	GI50 (U251 CNS)	TGI (U251 CNS)	GI50 (SK-MEL-5 melanoma)	TGI (SK-MEL-5 melanoma)	GI50 (ACHN renal)
NC(=O)c1nnn(Cc2cc(Cl)c(C(=O)c3ccc(Cl)cc3)c(Cl)c2)c1N	> 9.09 µM	> 90.7 µM	> 9.09 µM	> 9.09 µM and 39.1 µM	> 9.09 µM	> 9.09 µM and 39 µM	> 9.09 µM and 35.1 µM	> 9.09 µM	> 9.09 µM and 42.1 µM	> 9090 nM	> 9.09 µM and 27.2 µM	> 9.09 µM	> 100 µM	> 9.09 µM	> 9.09 µM and 30.5 µM	> 9.09 µM	> 9.09 µM and 38.1 µM	> 9.09 µM	> 9.09 µM and 32.7 µM	
O=C1Nc2ccccc2C1(c1ccc(O)c(F)c1)c1ccc(O)c(F)c1	10.6 µM	67 µM	0.237 µM	0.659 µM	0.409 µM	11.3 µM	> 84 µM	11.9 µM	42.8 µM	11100 nM	27.4 µM	15 µM	42.6 µM	19.1 µM	69 µM	14.5 µM	48.6 µM	14.7 µM	29.9 µM	3.07 µM
CC(=O)Oc1ccc2ccc(=O)oc2c1OC(C)=O		> 100 µM		> 100 µM		> 100 µM	> 100 µM		> 100 µM		> 100 µM		38.1 µM		> 100 µM		> 100 µM		94.2 µM	
C[N+](C)(C)CCC(=O)N1C/C(=C\c2ccccc2)C(=O)/C(=C/c2ccccc2)C1		7.31 µM		9.79 µM		23.6 µM	15.3 µM		33 µM		35.3 µM		9.44 µM		12.2 µM		6 µM		22.6 µM	
COc1ccc(/C=C2\N=C(c3ccccc3)N(c3cc(C(F)(F)F)ccc3Cl)C2=O)cc1OC	29 µM	71.7 µM	39.2 µM	> 100 µM	93.6 µM	> 100 µM	> 100 µM	48.4 µM	> 100 µM	> 100000 nM	> 100 µM	17.6 µM	47.3 µM	46.4 µM	> 100 µM	39 µM	> 100 µM	25 µM	54.9 µM	58.1 µM
CN(C)c1ccccc1CC(c1c[nH]c2ccccc12)c1c[nH]c2ccccc12		21.7 µM		21.1 µM		29.9 µM	20.6 µM		23.1 µM		31.1 µM		25.3 µM		27.8 µM		24.7 µM		28.8 µM	
O=C1Nc2cc(Cl)ccc2Oc2cc(Oc3ccccc3)ccc21	4.78 µM	> 100 µM	6.52 µM	23.8 µM	12 µM	47.3 µM	76.6 µM	6.52 µM	> 100 µM	1690 nM	9.72 µM	3.6 µM	> 100 µM	10.5 µM	49.2 µM	5.26 µM	23.8 µM	3.13 µM	15.1 µM	12.2 µM
O=C(/C=C/C=C/c1ccccc1)c1ccc(Nc2nc(Nc3ccccc3)nc(Nc3ccccc3)n2)cc1	9.89 µM	35.8 µM	88.1 µM	> 100 µM	> 100 µM	> 100 µM	> 100 µM	13.3 µM	> 100 µM	19800 nM	> 100 µM	28.7 µM	> 100 µM	> 100 µM	> 100 µM	63.7 µM	> 100 µM	13 µM	> 100 µM	> 100 µM
COc1ccc2nc3cc(Cl)ccc3c(NCCC(=O)OCC(O)C(O)C(O[C@H](C)C(=O)NC(C)C(=O)NC(CCC(N)=O)C(=O)OCc3ccccc3)C(C=O)NC(C)=O)c2c1 (stereo not given in full)		44.2 µM		34.3 µM		46.2 µM	32.2 µM		34.7 µM		37.7 µM		56.3 µM		62.1 µM		35.7 µM		30.2 µM	
COc1cc(C(=O)NC2CCN(C)CC2)ccc1Nc1ncc2c(n1)N(C1CCCC1)CC(F)(F)C(=O)N2C	< 0.01 µM	1.79 µM	0.264 µM	12.5 µM	1.39 µM	14.4 µM	14.9 µM	1.66 µM	12.9 µM	28 nM	0.272 µM	< 0.01 µM	0.0223 µM	0.0375 µM	16.8 µM	< 0.01 µM	12.9 µM	< 0.0311 µM	1.28 µM	0.542 µM
Nc1ncnc2c1c(-c1cccc(OCc3ccccc3)c1)cn2C1CC(CN2CCCC2)C1 (stereo not given)	2.7 µM	8.57 µM	1.86 µM	6.59 µM	1.84 µM	5.05 µM	11 µM	1.28 µM	3.61 µM	1720 nM	4.66 µM	0.426 µM	3.03 µM	4.19 µM	16.9 µM	1.51 µM	2.96 µM	1.39 µM	2.76 µM	2.93 µM
CCOC(=O)C1=C(N)Oc2c(sc3c(C)cccc23)C1c1ccc(Cl)cc1 (stereo not given)	3.58 µM	19.7 µM	6.92 µM	21 µM	12.6 µM	29.1 µM	17.6 µM	3.03 µM	16.7 µM	1000 nM	7.09 µM	2.56 µM	7.81 µM	3.71 µM	16 µM	3.46 µM	14.8 µM	4.04 µM	14.4 µM	3.17 µM
CCCCCCCCCCCC1=NC(C)(C)CN1CCO	3.23 µM	9.94 µM	7.45 µM	21.5 µM	10.8 µM	28.9 µM	23.5 µM	7.25 µM	21 µM	15600 nM	31.8 µM	3.3 µM	13.7 µM	15.1 µM	30.9 µM	2.8 µM	9.46 µM	12 µM	25.1 µM	9.05 µM
C=C1C(=O)O[C@H]2[C@H]1CC/C(C=Nc1ccc(C(F)(F)F)cc1N)=C\CC[C@@]1(C)O[C@@H]21	3.06 µM	9.67 µM	4.44 µM	20.6 µM	6.14 µM	17.4 µM	22.1 µM	2.87 µM	19.3 µM	17000 nM	30.8 µM	3.53 µM	14.3 µM	11.5 µM	26.2 µM	10.9 µM	23.9 µM	13.5 µM	26.7 µM	6.9 µM
CCOC(=O)c1c[nH]c2c(OCc3ccccc3)c3ccccc3c(O)c2c1=O	6.24 µM	> 100 µM	54.3 µM	> 100 µM	16 µM	45.5 µM	33.4 µM	21.7 µM	> 100 µM	27300 nM	> 78.1 µM	40.7 µM	> 100 µM	16.7 µM	97.1 µM	5.78 µM	25.4 µM	2.55 µM	7.52 µM	4.97 µM
O=C(CCCCCCC(=O)N/N=C/c1ccc(N(c2ccccc2)c2ccccc2)cc1)NO	1.88 µM	10.3 µM	1.65 µM	8.72 µM	0.314 µM	1.86 µM	7.39 µM	1.44 µM	4.4 µM	357 nM	1.62 µM	2.64 µM	7.57 µM	3.35 µM	15.9 µM	1.75 µM	4.46 µM	1.76 µM	3.63 µM	2.28 µM
C(=N/Nc1ncnc2nc[nH]c12)/c1ccccn1	0.367 µM	> 100 µM	0.3 µM	> 100 µM	0.452 µM	> 100 µM	14.1 µM	0.265 µM	3.09 µM	6170 nM	> 100 µM	1.01 µM	7.07 µM	0.98 µM	> 100 µM	0.569 µM	> 100 µM	1.28 µM	4.61 µM	1.19 µM
CCCN(CCC)c1ccc(C=O)cc1	29.8 µM	> 100 µM	26.5 µM	> 100 µM	37.5 µM	> 100 µM	> 100 µM	36.2 µM	> 100 µM	1810 nM	4.15 µM	27 µM	> 84 µM	62 µM	> 100 µM	42 µM	> 100 µM	20.7 µM	54.5 µM	77.7 µM
COc1c(OC(C)=O)c(OC(C)=O)cc2c1-c1ccc(OC)c(=O)cc1C(NC(C)=O)CC2 (stereo not given)		> 85.8 µM		> 100 µM		> 100 µM	> 100 µM		> 100 µM		2.48 µM		< 0.0103 µM		> 95.5 µM		9.24 µM		0.0264 µM	
O=C(O)CN(CC(=O)O)Cc1cc2c(cc1O)Oc1cc(O)c(CN(CC(=O)O)CC(=O)O)cc1C21OC(=O)c2ccccc21		> 100 µM		> 100 µM		> 100 µM	> 100 µM		> 100 µM		> 100 µM		> 100 µM		> 100 µM		> 100 µM		> 100 µM	
Cc1ccc(Cl)cc1Nc1nc(C(F)(F)F)ccc1C(=O)N/N=C/c1c(Cl)cccc1Cl	0.596 µM	4.93 µM	0.289 µM		1.4 µM	7.39 µM	6.14 µM	1.53 µM	5.13 µM	929 nM	5.61 µM	0.863 µM	3.36 µM	1.75 µM	> 52.2 µM	0.471 µM	5.78 µM	1.52 µM	3.82 µM	1.08 µM
COc1ccc2nc3cccc([N+](=O)[O-])c3c(NCCN(CCO)CCO)c2c1	0.0161 µM	0.136 µM	0.0222 µM	0.0685 µM	0.0307 µM	0.229 µM	0.0495 µM	0.0539 µM	0.184 µM	22 nM	0.0524 µM	0.0235 µM	1.49 µM	0.129 µM	1.45 µM	0.021 µM	0.136 µM		0.0175 µM	0.0142 µM
COc1ccc(Nc2c3c4c(cccc4[nH]c2=O)C(=O)c2ccccc2-3)cc1	0.558 µM		0.971 µM	> 100 µM	< 0.0225 µM	21.3 µM	> 100 µM	0.319 µM	> 100 µM	< 19.2 nM		0.0188 µM	0.0393 µM	0.684 µM	> 100 µM	0.0434 µM	> 68.9 µM	< 0.0172 µM	0.0451 µM	0.0406 µM
